Legend:
Experiment in all cases: relative viability (nuclei count vs DMSO), 5 days (fraction); higher = more cells survive
ChaGo-K-1 = test system: ChaGo-K-1
Outline: (§1)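 For relative viability, nuclei counts in treated wells were divided by those in vehicle wells. Lung cancer cell lines had been pin-tool dosed in 1536-well plates the day after seeding and cultured for 5 days, then fixed and stained in one step (final 0.05% Triton X-100, 1% formaldehyde, 1 ug/ml Hoechst) and imaged at 4×. Doses were one drug alone or a fixed anchor-drug dose plus five library-drug doses (not always all listed) in √10 steps, and values are duplicate-plate medians.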

EKVX = test system: EKVX
Outline: as §1

EMC-BAC-2 = test system: EMC-BAC-2
Outline: as §1

H3255 = test system: H3255
Outline: as §1

HARA = test system: HARA
Outline: as §1

HCC-15 = test system: HCC-15
Outline: as §1

HCC-827 = test system: HCC-827
Outline: as §1

LC-2-ad = test system: LC-2-ad
Outline: as §1

LCLC-97TM1 = test system: LCLC-97TM1
Outline: as §1

LU99A = test system: LU99A
Outline: as §1

NCI-H1437 = test system: NCI-H1437
Outline: as §1

NCI-H1792 = test system: NCI-H1792
Outline: as §1

NCI-H1793 = test system: NCI-H1793
Outline: as §1

NCI-H1915 = test system: NCI-H1915
Outline: as §1

NCI-H1944 = test system: NCI-H1944
Outline: as §1

NCI-H2126 = test system: NCI-H2126
Outline: as §1

NCI-H23 = test system: NCI-H23
Outline: as §1

NCI-H322M = test system: NCI-H322M
Outline: as §1

NCI-H441 = test system: NCI-H441
Outline: as §1

NCI-H460 = test system: NCI-H460
Outline: as §1

NCI-H661 = test system: NCI-H661
Outline: as §1

PC-3 [JPC-3] = test system: PC-3 [JPC-3]
Outline: as §1

SK-LU-1 = test system: SK-LU-1
Outline: as §1

Structure (SMILES): O=c1[nH]c2ccccc2n1C1CCN(CCCC(c2ccc(F)cc2)c2ccc(F)cc2)CC1 [Pimozide] + CCNC(=O)c1noc(-c2cc(C(C)C)c(O)cc2O)c1-c1ccc(CN2CCOCC2)cc1 [Luminespib] (partner 0.01 µM)
- relative viability (ChaGo-K-1; first compound 0.08 µM): 0.48
- relative viability (ChaGo-K-1; first compound 0.253 µM): 0.472
- relative viability (ChaGo-K-1; first compound 0.8 µM): 0.375
- relative viability (ChaGo-K-1; first compound 2.53 µM): 0.496
- relative viability (ChaGo-K-1; first compound 8 µM): 0.484
- relative viability (EKVX; first compound 0.08 µM): 0.699
- relative viability (EKVX; first compound 0.253 µM): 0.86
- relative viability (EKVX; first compound 0.8 µM): 0.807
- relative viability (EKVX; first compound 2.53 µM): 0.909
- relative viability (EKVX; first compound 8 µM): 0.802
- relative viability (EMC-BAC-2; first compound 0.08 µM): 1.13
- relative viability (EMC-BAC-2; first compound 0.253 µM): 1.1
- relative viability (EMC-BAC-2; first compound 0.8 µM): 1.18
- relative viability (EMC-BAC-2; first compound 2.53 µM): 1.18
- relative viability (EMC-BAC-2; first compound 8 µM): 1.16
- relative viability (H3255; first compound 0.253 µM): 0.926
- relative viability (H3255; first compound 0.8 µM): 0.684
- relative viability (H3255; first compound 2.53 µM): 0.883
- relative viability (H3255; first compound 8 µM): 0.799
- relative viability (HARA; first compound 0.253 µM): 0.949
- relative viability (HARA; first compound 0.8 µM): 0.684
- relative viability (HARA; first compound 2.53 µM): 0.568
- relative viability (HARA; first compound 8 µM): 0.795
- relative viability (HCC-15; first compound 0.08 µM): 0.308
- relative viability (HCC-15; first compound 0.253 µM): 0.288
- relative viability (HCC-15; first compound 0.8 µM): 0.257
- relative viability (HCC-15; first compound 2.53 µM): 0.175
- relative viability (HCC-15; first compound 8 µM): 0.308
- relative viability (HCC-827; first compound 0.253 µM): 0.58
- relative viability (HCC-827; first compound 0.8 µM): 0.413
- relative viability (HCC-827; first compound 2.53 µM): 0.625
- relative viability (HCC-827; first compound 8 µM): 0.582
- relative viability (LC-2-ad; first compound 0.08 µM): 1.1
- relative viability (LC-2-ad; first compound 0.253 µM): 0.969
- relative viability (LC-2-ad; first compound 0.8 µM): 0.935
- relative viability (LC-2-ad; first compound 2.53 µM): 0.985
- relative viability (LC-2-ad; first compound 8 µM): 0.993
- relative viability (LCLC-97TM1; first compound 0.08 µM): 0.89
- relative viability (LCLC-97TM1; first compound 0.253 µM): 0.689
- relative viability (LCLC-97TM1; first compound 0.8 µM): 0.62
- relative viability (LCLC-97TM1; first compound 2.53 µM): 0.632
- relative viability (LCLC-97TM1; first compound 8 µM): 0.679
- relative viability (LU99A; first compound 0.08 µM): 0.242
- relative viability (LU99A; first compound 0.253 µM): 0.247
- relative viability (LU99A; first compound 0.8 µM): 0.263
- relative viability (LU99A; first compound 2.53 µM): 0.242
- relative viability (LU99A; first compound 8 µM): 0.233
- relative viability (NCI-H1437; first compound 0.08 µM): 1.13
- relative viability (NCI-H1437; first compound 0.253 µM): 1.09
- relative viability (NCI-H1437; first compound 0.8 µM): 1.12
- relative viability (NCI-H1437; first compound 2.53 µM): 0.988
- relative viability (NCI-H1437; first compound 8 µM): 0.922
- relative viability (NCI-H1792; first compound 0.08 µM): 0.525
- relative viability (NCI-H1792; first compound 0.253 µM): 0.424
- relative viability (NCI-H1792; first compound 0.8 µM): 0.403
- relative viability (NCI-H1792; first compound 2.53 µM): 0.477
- relative viability (NCI-H1792; first compound 8 µM): 0.498
- relative viability (NCI-H1793; first compound 0.253 µM): 0.166
- relative viability (NCI-H1793; first compound 0.8 µM): 0.207
- relative viability (NCI-H1793; first compound 2.53 µM): 0.169
- relative viability (NCI-H1793; first compound 8 µM): 0.149
- relative viability (NCI-H1915; first compound 0.08 µM): 0.807
- relative viability (NCI-H1915; first compound 0.253 µM): 0.8
- relative viability (NCI-H1915; first compound 0.8 µM): 0.714
- relative viability (NCI-H1915; first compound 2.53 µM): 0.666
- relative viability (NCI-H1915; first compound 8 µM): 0.782
- relative viability (NCI-H1944; first compound 0.08 µM): 0.634
- relative viability (NCI-H1944; first compound 0.253 µM): 0.665
- relative viability (NCI-H1944; first compound 0.8 µM): 0.644
- relative viability (NCI-H1944; first compound 2.53 µM): 0.668
- relative viability (NCI-H1944; first compound 8 µM): 0.719
- relative viability (NCI-H2126; first compound 0.08 µM): 0.901
- relative viability (NCI-H2126; first compound 0.253 µM): 0.889
- relative viability (NCI-H2126; first compound 0.8 µM): 0.842
- relative viability (NCI-H2126; first compound 2.53 µM): 0.877
- relative viability (NCI-H2126; first compound 8 µM): 0.839
- relative viability (NCI-H23; first compound 0.08 µM): 0.236
- relative viability (NCI-H23; first compound 0.8 µM): 0.241
- relative viability (NCI-H23; first compound 2.53 µM): 0.195
- relative viability (NCI-H23; first compound 8 µM): 0.218
- relative viability (NCI-H322M; first compound 0.253 µM): 0.899
- relative viability (NCI-H322M; first compound 0.8 µM): 0.858
- relative viability (NCI-H322M; first compound 2.53 µM): 0.942
- relative viability (NCI-H322M; first compound 8 µM): 0.743
- relative viability (NCI-H441; first compound 0.08 µM): 0.413
- relative viability (NCI-H441; first compound 0.253 µM): 0.404
- relative viability (NCI-H441; first compound 0.8 µM): 0.332
- relative viability (NCI-H441; first compound 2.53 µM): 0.311
- relative viability (NCI-H441; first compound 8 µM): 0.3
- relative viability (NCI-H460; first compound 0.08 µM): 0.0367
- relative viability (NCI-H460; first compound 0.253 µM): 0.0252
- relative viability (NCI-H460; first compound 0.8 µM): 0.0202
- relative viability (NCI-H460; first compound 2.53 µM): 0.0243
- relative viability (NCI-H460; first compound 8 µM): 0.0256
- relative viability (NCI-H661; first compound 0.08 µM): 0.929
- relative viability (NCI-H661; first compound 0.253 µM): 0.879
- relative viability (NCI-H661; first compound 0.8 µM): 0.887
- relative viability (NCI-H661; first compound 2.53 µM): 0.878
- relative viability (NCI-H661; first compound 8 µM): 0.896
- relative viability (PC-3 [JPC-3]; first compound 0.08 µM): 0.402
- relative viability (PC-3 [JPC-3]; first compound 0.253 µM): 0.714
- relative viability (PC-3 [JPC-3]; first compound 0.8 µM): 0.699
- relative viability (PC-3 [JPC-3]; first compound 2.53 µM): 0.723
- relative viability (PC-3 [JPC-3]; first compound 8 µM): 0.599
- relative viability (SK-LU-1; first compound 0.08 µM): 0.219
- relative viability (SK-LU-1; first compound 0.253 µM): 0.197
- relative viability (SK-LU-1; first compound 0.8 µM): 0.206
- relative viability (SK-LU-1; first compound 2.53 µM): 0.183
- relative viability (SK-LU-1; first compound 8 µM): 0.206

Reference: the supplement of paper PMC10307832
